Publication PMC5632533, “Mechanisms of action and in vivo antibacterial efficacy assessment of five novel hybrid peptides derived from Indolicidin and Ranalexin against Streptococcus pneumoniae” (PeerJ, 2017)

Test system: ICR (CD-1) mice
Test: In vivo toxicity in mice (SC, IN, IP routes)
Set-up: Aspartate aminotransferase, AST / Alanine transaminase, ALT / Alkaline phosphatase, ALP / Creatinine / Urea / Total bilirubin: unit not given here
Settings: for Eosinophil / Erythrocytes, RBC / Granulocytes / Hematocrit, HCT / Hemoglobin Hgb / Lymphocytes / Mean corpuscular haemoglobin concentration, MCHC / Mean corpuscular haemoglobin, MCH / Mean corpuscular volume, MCV / Monocytes / White blood cells, WBC / platelet Counts, PLT / Alanine transaminase, ALT / Alkaline phosphatase, ALP / Aspartate aminotransferase, AST / Creatinine / Total bilirubin / Urea: 3 doses (1hr, 12hr, 24hr), RN7-IN9, RN7-IN6 10 mg/kg, day 7, mean±SD, 4 mice; for maximum IP dose at which no signs of stress or abnormal behavior were evident (non-toxic dose): doses at 1 h, 12 h, 24 h, no death up to seven days; for Alanine transaminase, ALT / Alkaline phosphatase, ALP / Aspartate aminotransferase, AST / Creatinine / Total bilirubin / Urea: serum
Protocol: In this study, 4-week old male, pathogen free ICR (CD-1) mice were purchased from InVivos (Lim Chu Kang, Singapore) and used to assess the in vivo toxicity and antibacterial efficacy of the novel peptides, as these animals are by far the most commonly used model for the study of pneumococcal disease ([Chiavolini, Pozzi & Ricci, 2008]). The mice were kept in ventilated polycarbonate cages (12 h light/dark cycle, 20 ± 2 °C and 55% relative humidity). All mice were familiarized for seven days before any experimental procedure and were given unlimited pellets and water ad libitum. All animal experimentations were conducted according to the guidelines approved by Faculty of Medicine Institutional Animal Care and Use Committee (FOM IACUC), University of Malaya (ethics Reference no. : 2013-07-15/MMBTR/SDS).
In order to evaluate the possible toxic effects correlated to peptides administered in mice, four hybrid peptides RN7-IN10, RN7-IN9, RN7-IN8 and RN7-IN6 were chosen for in vivo toxicity assessment, due to their promising in vitro antibacterial activity ([Jindal et al., 2015]). Mice were separated into four groups (each with four mice) and were injected with respective peptides at 1 h, 12 h, and 24 h (three-dose regimen) via IP, SC, and IN administration routes. The hybrid peptides were first administered at high doses (100 mg/kg for IP route, 100 mg/kg for SC routes and 20 mg/kg for IN route). Any abnormal behavior was recorded and survival of mice was noted as well. In case adverse effects such as high physical stress, severe lethargy, physical inactiveness, and/or death were detected, lower graded doses were given. All the administered mice were monitored for seven days or until death occurred. At day seven post administration, all animals were sacrificed and blood and organs were collected. Untreated mice were used as a control group.
Mice used to evaluate the in vivo toxicity and antibacterial activity of the hybrid peptides using the subcutaneous (SC) and intranasal (IN) administration routes, were anesthetized using a combination of a standard dose of xylazine (ilium xylazil-20, 10 mg/kg) and ketamine (Narketan®-10, 100 mg/kg) through intraperitoneal (IP) injection. After seven days of treatment, the in vivo toxicity and antibacterial efficacy experiments were ended and the surviving mice were anesthetized. Blood samples for Hematological and biochemical analysis were collected via cardiac puncture using a 25G syringe (BD bioscience, San Jose, CA, USA). Whole blood for heamatological analysis was collected in 500 µl dipotassium EDTA microtainer tubes (BD Bioscience, USA). About 500 µl of blood collected an eppedorff tube and centrifuged at 8000 rpm for 5 min and then the serum was transferred into a new 1.5 ml tube for biochemistry analysis. The mice were then euthanized by cervical dislocation, dissected and the following organs were collected for histopathology evaluation: lung, kidney, brain, liver and spleen.
For whole blood analysis, the parameters were number of red cells (RBC), number of white cells (WBC), lymphocytes, monocytes, eosinophil, granulocytes, haemoglobin (Hgb), mean corpuscular volume (MCV), hematocrit (HCT), platelet Counts (PLT), Mean corpuscular haemoglobin (MCH) and corpuscular haemoglobin concentration (MCHC). For biochemistry analysis, the parameters were alanine transaminase (ALT), creatinine, alkaline phosphatase (ALP), aspartate aminotransferase (AST), total bilirubin and urea.
The following organs were collected from all the dissected mice: lung, kidney, brain, spleen, and liver. All tissues were fixed in 10% (v/v) buffered formalin and processed for paraffin embedding. Hematoxylin–eosin (HE) was used to stain the histological sections at the histopathology laboratory, Veterinary Laboratory Service Unit, University Putra Malaysia (UPM).

[1] = IN, head doses: RN7-IN10, RN7-IN8 20 mg/kg
[2] = SC, head doses: RN7-IN10, RN7-IN8 20 mg/kg

For “FLGGLIKWPWWPWRR-NH2 [RN7-IN8, hybrid peptide of ranalexin (residues 1-7) and indolicidin (residues 6-13)]”, the Eosinophil [1] was 4.3±3.6%, the “Erythrocytes, RBC” value [1] was 8.95±0.53 10^6/mm^3 and the Granulocytes [1] was 52.9±9.54%. The “Hematocrit, HCT” value [1] was 44.8±2.9%, the “Hemoglobin Hgb” value [1] was 14.42 ± 0.76 g/dL and the Lymphocytes [1] was 45.6±14.31%. The “Mean corpuscular haemoglobin concentration, MCHC” value [1] was 32.22 ± 0.4 g/dL, the “Mean corpuscular haemoglobin, MCH” value [1] was 16.12 ± 0.33 pg and the “Mean corpuscular volume, MCV” value [1] was 50.25±1.25 µm^3. The Monocytes [1] was 3.22±0.68%, the “White blood cells, WBC” value [1] was 3.95±0.54 10^3/mm^3 and the “platelet Counts, PLT” value [1] was 612±130.37 10^3/mm^3. For the same substance, the Eosinophil (IP, RN7-IN10, RN7-IN8 20 mg/kg) was 2.34±0.63%, the “Erythrocytes, RBC” value (IP, RN7-IN10, RN7-IN8 20 mg/kg) was 8.14±0.34 10^6/mm^3 and the Granulocytes (IP, RN7-IN10, RN7-IN8 20 mg/kg) was 53.38±12.35%. The “Hematocrit, HCT” value (IP, RN7-IN10, RN7-IN8 20 mg/kg) was 42.73±1.66%, the “Hemoglobin Hgb” value (IP, RN7-IN10, RN7-IN8 20 mg/kg) was 14.55 ± 0.17 g/dL and the Lymphocytes (IP, RN7-IN10, RN7-IN8 20 mg/kg) was 53.7±8.22%. For the same substance, the “Mean corpuscular haemoglobin concentration, MCHC” value (IP, RN7-IN10, RN7-IN8 20 mg/kg) was 34.17 ± 1.13 g/dL, the “Mean corpuscular haemoglobin, MCH” value (IP, RN7-IN10, RN7-IN8 20 mg/kg) was 17.92 ± 0.56 pg and the “Mean corpuscular volume, MCV” value (IP, RN7-IN10, RN7-IN8 20 mg/kg) was 52.75±0.95 µm^3. For the same substance, the Monocytes (IP, RN7-IN10, RN7-IN8 20 mg/kg) was 2.77±0.88%, the “White blood cells, WBC” value (IP, RN7-IN10, RN7-IN8 20 mg/kg) was 4.18±0.36 10^3/mm^3 and the “platelet Counts, PLT” value (IP, RN7-IN10, RN7-IN8 20 mg/kg) was 472.5±100.52 10^3/mm^3. The “maximum IP dose at which no signs of stress or abnormal behavior were evident (non-toxic dose)” value (IP) was 20 mg/kg, the Eosinophil [2] was 2.42±0.61% and the “Erythrocytes, RBC” value [2] was 9.17±0.83 10^6/mm^3. The Granulocytes [2] was 58.62±9.82%, the “Hematocrit, HCT” value [2] was 46.15±3.69% and the “Hemoglobin Hgb” value [2] was 15.82 ± 1.11 g/dL. The Lymphocytes [2] was 43.85±6.28%, the “Mean corpuscular haemoglobin concentration, MCHC” value [2] was 34.38 ± 0.52 g/dL and the “Mean corpuscular haemoglobin, MCH” value [2] was 17.32 ± 0.49 pg. The “Mean corpuscular volume, MCV” value [2] was 50.25±0.95 µm^3, the Monocytes [2] was 1.92±0.15% and the “White blood cells, WBC” value [2] was 3.47±0.48 10^3/mm^3. For the same substance, the “platelet Counts, PLT” value [2] was 445.75±47.21 10^3/mm^3, the “Alanine transaminase, ALT” value [1] was 44.5±18.9 and the “Alkaline phosphatase, ALP” value [1] was 128.5±21.7. For the same substance, the “Aspartate aminotransferase, AST” value [1] was 176.3±31.91, the Creatinine [1] was 40.56±1.74 and the Total bilirubin [1] was 2.21±0.18. For the same substance, the Urea [1] was 8.89±1.30, the “Alanine transaminase, ALT” value (IP, RN7-IN10, RN7-IN8 20 mg/kg) was 62.1±23.84 and the “Alkaline phosphatase, ALP” value (IP, RN7-IN10, RN7-IN8 20 mg/kg) was 115.4±34.9. For the same substance, the “Aspartate aminotransferase, AST” value (IP, RN7-IN10, RN7-IN8 20 mg/kg) was 148.9±21.51, the Creatinine (IP, RN7-IN10, RN7-IN8 20 mg/kg) was 39.2±3.81 and the Total bilirubin (IP, RN7-IN10, RN7-IN8 20 mg/kg) was 1.98±0.11. The Urea (IP, RN7-IN10, RN7-IN8 20 mg/kg) was 10.34±2.36, the “Alanine transaminase, ALT” value [2] was 50±5.49 and the “Alkaline phosphatase, ALP” value [2] was 134±8.24. The “Aspartate aminotransferase, AST” value [2] was 170.75±14.52, the Creatinine [2] was 43.4±0.8 and the Total bilirubin [2] was 1.84±0.12. It also gave a Urea [2] of 9.61±3.02.
“FLGGLIKWWPWRR-NH2 [RN7-IN6, hybrid peptide of ranalexin (residues 1-7) and indolicidin (residues 8-13)]” was tested, and the Eosinophil [1] was 3.5±0.9%, the “Erythrocytes, RBC” value [1] was 9.12±0.25 10^6/mm^3 and the “Hematocrit, HCT” value [1] was 47.43±0.61%. The “Hemoglobin Hgb” value [1] was 15 ± 0.28 g/dL, the Lymphocytes [1] was 47.67±12.2% and the “Mean corpuscular haemoglobin concentration, MCHC” value [1] was 31.7 ± 0.21 g/dL. The “Mean corpuscular haemoglobin, MCH” value [1] was 16.5 ± 0.17 pg, the “Mean corpuscular volume, MCV” value [1] was 52.66±1.24 µm^3 and the Monocytes [1] was 2.7±0.57%. The “White blood cells, WBC” value [1] was 3.6±0.35 10^3/mm^3, the “platelet Counts, PLT” value [1] was 597.66±123.23 10^3/mm^3 and the Eosinophil (IP, RN7-IN10, RN7-IN8 20 mg/kg) was 3.22±1.47%. The “Erythrocytes, RBC” value (IP, RN7-IN10, RN7-IN8 20 mg/kg) was 8.71±0.44 10^6/mm^3, the Granulocytes (IP, RN7-IN10, RN7-IN8 20 mg/kg) was 57.87±11.66% and the “Hematocrit, HCT” value (IP, RN7-IN10, RN7-IN8 20 mg/kg) was 44.97±1.75%. The “Hemoglobin Hgb” value (IP, RN7-IN10, RN7-IN8 20 mg/kg) was 15.02 ± 0.59 g/dL, the Lymphocytes (IP, RN7-IN10, RN7-IN8 20 mg/kg) was 54.6±3.8% and the “Mean corpuscular haemoglobin concentration, MCHC” value (IP, RN7-IN10, RN7-IN8 20 mg/kg) was 33.42 ± 0.62 g/dL. The “Mean corpuscular haemoglobin, MCH” value (IP, RN7-IN10, RN7-IN8 20 mg/kg) was 16.67 ± 1.07 pg, the “Mean corpuscular volume, MCV” value (IP, RN7-IN10, RN7-IN8 20 mg/kg) was 50.5±1.29 µm^3 and the Monocytes (IP, RN7-IN10, RN7-IN8 20 mg/kg) was 2.53±0.33%. The “White blood cells, WBC” value (IP, RN7-IN10, RN7-IN8 20 mg/kg) was 4.1±0.72 10^3/mm^3, the “platelet Counts, PLT” value (IP, RN7-IN10, RN7-IN8 20 mg/kg) was 540.75±107.41 10^3/mm^3 and the “maximum IP dose at which no signs of stress or abnormal behavior were evident (non-toxic dose)” value (IP) was 10 mg/kg. The Eosinophil [2] was 2.7±0.71%, the “Erythrocytes, RBC” value [2] was 9.59±0.92 10^6/mm^3 and the Granulocytes [2] was 51.12±5.16%. The “Hematocrit, HCT” value [2] was 49.2±4.43%, the “Hemoglobin Hgb” value [2] was 16.17 ± 1.44 g/dL and the Lymphocytes [2] was 51.85±3.3%. For the same substance, the “Mean corpuscular haemoglobin concentration, MCHC” value [2] was 32.87 ± 0.42 g/dL, the “Mean corpuscular haemoglobin, MCH” value [2] was 16.85 ± 0.3 pg and the “Mean corpuscular volume, MCV” value [2] was 50±1.82 µm^3. The Monocytes [2] was 2.8±0.25%, the “White blood cells, WBC” value [2] was 3.86±0.34 10^3/mm^3 and the “Alanine transaminase, ALT” value [1] was 43.2±7.56. The “Alkaline phosphatase, ALP” value [1] was 138.33±5.5, the “Aspartate aminotransferase, AST” value [1] was 140±7.2 and the Creatinine [1] was 40.15±3.6. The Total bilirubin [1] was 1.95±0.08, the Urea [1] was 10.14±1.52 and the “Alkaline phosphatase, ALP” value (IP, RN7-IN10, RN7-IN8 20 mg/kg) was 114.97±24.9. For the same substance, the “Aspartate aminotransferase, AST” value (IP, RN7-IN10, RN7-IN8 20 mg/kg) was 176±19.31, the Creatinine (IP, RN7-IN10, RN7-IN8 20 mg/kg) was 41.47±4.2 and the Total bilirubin (IP, RN7-IN10, RN7-IN8 20 mg/kg) was 2.1±0.1. The Urea (IP, RN7-IN10, RN7-IN8 20 mg/kg) was 8.97±1.17, the “Alanine transaminase, ALT” value [2] was 43.32±10.3 and the “Alkaline phosphatase, ALP” value [2] was 106.56±20.1. For the same substance, the “Aspartate aminotransferase, AST” value [2] was 158.25±18.9, the Creatinine [2] was 34.89±0.25 and the Total bilirubin [2] was 2.03±0.14. For the same substance, the Urea [2] was 9.07±2.02.
